Reference: PubChem BioAssay (NCI)
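1) Cells in 96-well plates. 2) Compound, 48 h, 5 concentrations. 3) Linear interpolation between surrounding doses. 4) Unreached endpoint = highest concentration. GI50 marks 50% less growth. TGI: total growth inhibition.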

Legend:
Assay in all cases: DTP human tumour cell line panel, 48 h
[1] = system: UO-31 renal
[2] = system: TK-10 renal
[3] = system: OVCAR-3 ovarian
[4] = system: SK-MEL-2 melanoma
[5] = system: OVCAR-5 ovarian
[6] = system: RXF 393 renal
[7] = system: OVCAR-4 ovarian
[8] = system: HL-60(TB) leukemia

SMILES | TGI [1] [µM] | TGI [2] [µM] | TGI [3] [µM] | TGI [4] [µM] | TGI [5] [µM] | TGI [6] [µM] | TGI [7] [µM] | TGI [8] [µM] | GI50 [1] [µM] | GI50 [2] [µM] | GI50 [3] [µM] | GI50 [4] [µM] | GI50 [5] [µM] | GI50 [6] [µM] | GI50 [7] [µM] | GI50 [8] [µM]
COC(=O)/C(=N\NC(=O)C[N+](C)(C)C)C(C(=O)OC)C(=O)C(=O)Nc1ccccc1C(N)=O (stereo not given) | > 100 | > 100 | > 100 | > 100 | > 100 | > 100 | > 100 | > 100 | – | – | – | – | – | – | – | –
O=c1[nH]nc2ccccc2c1Cc1ccccc1 | > 100 | > 100 | > 100 | > 100 | > 100 | – | > 100 | – | – | – | – | – | – | – | – | –
Clc1ccc(N=Nc2nc3ccccc3nc2N=Nc2ccc(Cl)cc2Cl)c(Cl)c1 | > 100 | > 100 | > 100 | > 100 | – | > 100 | > 100 | 90 | – | – | – | – | – | – | – | –
c1ccc(C(c2ccccc2)c2cccnc2)cc1 | > 100 | > 100 | > 100 | > 100 | > 100 | – | > 100 | – | – | – | – | – | – | – | – | –
Cc1ccc(SSc2ccc(C)cc2C(=O)O)c(C(=O)O)c1 | > 100 | > 100 | – | > 100 | > 100 | > 100 | > 100 | > 100 | – | – | – | – | – | – | – | –
COc1cc([C@@H]2c3cc4c(cc3[C@@H](OC(=O)c3ccc(N)cc3)C3COC(=O)[C@@H]32)OCO4)cc(OC)c1O (stereo not given in full) | 34.5 | 94.2 | 35 | 59.6 | > 95 | > 95 | > 95 | 22.2 | – | – | – | – | – | – | – | –
C[C@]12CCC(=O)C=C1CC[C@@H]1C2CC[C@]2(C)Nc3c(cnn3-c3ccccc3)CC12 (stereo not given in full) | > 100 | > 100 | > 10 | > 100 | > 100 | > 100 | > 100 | > 100 | – | – | – | – | – | – | – | –
COCC(O)Cn1ccnc1[N+](=O)[O-] (stereo not given) | > 100 | > 100 | > 100 | > 100 | > 100 | – | – | > 100 | – | – | – | – | – | – | – | –
CCOC1=C2C(=O)OC(=O)C2C2CCCCC2=C1 (stereo not given) | > 100 | > 100 | > 100 | > 100 | – | > 100 | > 100 | > 100 | – | – | – | – | – | – | – | –
CC(C)CCCC(C)[C@H]1CCC2[C@@H]3CCC4Nc5nocc5C[C@]4(C)C3CC[C@@]21C (stereo not given in full) | 27.9 | 21.1 | 20.5 | 38.7 | – | 28.5 | 39.3 | 27.6 | – | – | – | – | – | – | – | –
OCC1C(/C=C/c2ccoc2)ON2CCCC12 (stereo not given) | > 100 | > 100 | – | > 100 | > 100 | > 100 | > 100 | > 100 | – | – | – | – | – | – | – | –
O=C1NC2(CCCCCC2)C2CCCCCCC12O (stereo not given) | > 100 | > 100 | > 100 | > 100 | > 100 | > 100 | > 100 | > 100 | – | – | – | – | – | – | – | –
C=CCNC(=O)N(CCCC(NC(C)=O)C(=O)NCc1ccccc1)Cc1ccccc1 (stereo not given) | > 100 | > 100 | > 100 | > 100 | > 100 | > 100 | > 100 | > 100 | – | – | – | – | – | – | – | –
O=C(NC(=O)c1cn(CCN(CCO)C(=O)NCCCCCCNC(=O)N(CCO)CCn2cc(C(=O)NC(=O)OCc3ccccc3)c(=O)[nH]c2=O)c(=O)[nH]c1=O)OCc1ccccc1 | > 100 | > 100 | > 100 | > 100 | > 100 | > 100 | > 100 | > 100 | – | – | – | – | – | – | – | –
O=c1c2ccccc2c(=O)n2n1CC=CC2 | > 100 | > 100 | > 100 | > 100 | > 100 | > 100 | > 100 | > 100 | – | – | – | – | – | – | – | –
COc1ccc2c(c1)[n+]([O-])c(-c1ccc(OC)c(OC)c1)c(N)[n+]2[O-] | > 100 | > 100 | > 100 | > 100 | > 100 | – | > 100 | > 100 | – | – | – | – | – | – | – | –
CCN(CC)CCOc1ccc(CCc2cc(OC)c(OC)c(OC)c2)cc1 | > 100 | 88.9 | > 100 | – | 65.3 | 93.2 | > 100 | 44.4 | – | – | – | – | – | – | – | –
O=C(CC(=O)C1=CNc2ccccc2S1)C(=O)Nc1ccc(Cl)cc1 | > 50 | > 50 | > 50 | > 50 | > 50 | > 50 | > 50 | 49.6 | – | – | – | – | – | – | – | –
COC1OC(CBr)C(OC(=O)c2ccccc2)C(O)C1Br (stereo not given) | – | > 100 | > 100 | – | > 100 | > 100 | > 100 | > 100 | – | – | – | – | – | – | – | –
C1COCCN1.C1COCCN1.NC1CCCCC1N.[Cl-].[Pt+2] (stereo not given) | > 100 | > 100 | > 100 | > 100 | > 100 | > 100 | > 100 | > 100 | > 100 | > 100 | > 100 | > 100 | > 100 | > 100 | > 100 | > 100
CC(=O)NNc1nc(C)c(C(=O)/C=C/c2ccccc2Cl)s1 | > 100 | > 100 | > 100 | > 100 | > 100 | > 100 | – | > 100 | – | – | – | – | – | – | – | –
